target: Tyrosine-protein kinase JAK2 [Y1007F,Y1008F] (Homo sapiens, UniProt O60674, Y1007F/Y1008F); assay: JAK2 Binding Assay
Description: Streptavidin-coated magnetic beads were treated with biotinylated small molecule ligands for 30 minutes at room temperature to generate affinity resins for kinase assays. The liganded beads were blocked with excess biotin and washed with blocking buffer (SeaBlock (Pierce), 1% BSA, 0.05% Tween 20, 1 mmol/L DTT) to remove unbound ligand and to reduce nonspecific phage binding. Binding reactions were assembled by combining kinases, liganded affinity beads, and test compounds in 1× binding buffer (1×PBS, 0.05% Tween 20, 0.1% BSA, 1 mmol/L DTT). Test compound was prepared as 111× stocks in 100% DMSO and directly diluted into the assay wells. All reactions were performed in polypropylene 384-well plates in a final volume of 0.02 mL. The assay plates were incubated at room temperature with shaking for 1 hour and the affinity beads were washed with wash buffer (1×PBS, 0.05% Tween 20). The beads were then re-suspended in elution buffer (1×PBS, 0.05% Tween 20, 0.5 μmol/L non-biotinylated affinity ligand) and incubated at room temperature with shaking for 30 minutes. The kinase concentration in the eluate was measured by qPCR.

Chain of Tyrosine-protein kinase JAK2 [Y1007F,Y1008F] (O60674 whole entry Y1007F/Y1008F): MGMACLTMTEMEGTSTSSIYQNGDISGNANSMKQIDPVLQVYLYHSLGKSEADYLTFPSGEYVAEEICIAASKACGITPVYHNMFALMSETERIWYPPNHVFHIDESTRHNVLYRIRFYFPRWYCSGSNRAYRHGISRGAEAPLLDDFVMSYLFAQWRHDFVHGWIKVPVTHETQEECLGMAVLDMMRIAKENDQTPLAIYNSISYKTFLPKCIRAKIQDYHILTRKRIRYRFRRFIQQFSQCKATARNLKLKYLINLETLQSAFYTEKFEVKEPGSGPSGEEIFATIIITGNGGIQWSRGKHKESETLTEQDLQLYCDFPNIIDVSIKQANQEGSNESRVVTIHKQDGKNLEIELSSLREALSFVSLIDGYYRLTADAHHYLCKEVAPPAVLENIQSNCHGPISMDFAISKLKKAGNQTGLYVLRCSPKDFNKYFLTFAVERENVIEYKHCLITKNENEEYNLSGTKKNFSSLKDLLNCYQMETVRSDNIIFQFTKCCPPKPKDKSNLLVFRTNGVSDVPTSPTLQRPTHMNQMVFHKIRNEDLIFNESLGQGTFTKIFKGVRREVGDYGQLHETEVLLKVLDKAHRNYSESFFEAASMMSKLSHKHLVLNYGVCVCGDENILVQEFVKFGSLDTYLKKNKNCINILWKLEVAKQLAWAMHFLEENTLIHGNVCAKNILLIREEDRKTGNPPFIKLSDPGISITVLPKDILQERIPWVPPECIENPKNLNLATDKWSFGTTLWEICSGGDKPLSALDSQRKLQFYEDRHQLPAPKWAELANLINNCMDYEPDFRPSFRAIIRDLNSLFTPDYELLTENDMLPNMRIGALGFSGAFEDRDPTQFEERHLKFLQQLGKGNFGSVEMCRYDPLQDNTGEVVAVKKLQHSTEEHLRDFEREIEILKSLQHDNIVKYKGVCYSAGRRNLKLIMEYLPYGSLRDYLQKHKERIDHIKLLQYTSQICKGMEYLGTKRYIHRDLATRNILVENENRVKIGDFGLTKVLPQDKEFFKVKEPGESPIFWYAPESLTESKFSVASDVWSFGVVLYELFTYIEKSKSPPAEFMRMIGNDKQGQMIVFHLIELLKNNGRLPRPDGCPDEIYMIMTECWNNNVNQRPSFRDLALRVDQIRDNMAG

Kd, < 10 nM:
CC(=O)Nc1cc(Oc2cnc3nc(Nc4cc(C(C)(C)C)n([C@H]5C[C@H](O)C5)n4)n(C)c3c2)ccn1 [US11691963, Example I-115]
CC(=O)Nc1cc(Oc2cnc3nc(Nc4cc(C(C)(C)C)n([C@H]5C[C@@H](O)C5)n4)n(C)c3c2)ccn1 [US11691963, Example I-116]
CC(=O)Nc1cc(Oc2ccc3nc(Nc4cc5n(n4)CCCC5(C)C)n(C)c3n2)ccn1 [US11691963, Example I-42]
CC(=O)Nc1cc(Oc2ccc3nc(Nc4cc(C(C)(C)C)n(C[C@H]5C[C@@H](O)C5)n4)n(C)c3c2)ccn1 [US11691963, Example I-28]
